Source: patent US20130078194A1, “COMPOSITIONS FOR DENTAL TREATMENT COMPRISING LIPOTEICHOIC ACIDS OR PARTS THEREOF LIKE MONO- OR POLYGLYCERPHOSPHATES” (LUNAMED AG, priority 2010, published 2013)
Values joined by “and” are separate entries in the source; they are usually repeats but may differ in a detail not shown here. Identical values can stand only once.

System: Streptococcus mutans
Test: Tooth experiment: biofilm formation of Streptococcus mutans on pre-treated human incisors (Safranin staining, phase analysis of pictures)
Format: cell-based
Conditions: for % Area covered with bacteria: single pictures (4 per tooth), 3 days S. mutans; for % Mean area covered: mean of 4 pictures
Experimental: To investigate the influence of glycerol phosphate, polyglycerol phosphate and LTA-T on the biofilm formation of Streptococcus mutans on human teeth, incisors (1/condition) were preincubated under rotating conditions (50 rpm) at 37° C. for 1 h with: • 1. 5000 μg/ml glycerol phosphate in PBS • 2. 20000 μg/ml glycerol phosphate in PBS • 3. 277 μg/ml polyglycerol phosphate (PGP1) in PBS • 4. 1106 μg/ml polyglycerol phosphate (PGP1) in PBS • 5. 25 μg/ml LTA-T in PBS • 6. PBS as control
These teeth were then washed with ultrapure H2O by repetitive dipping (3 liquid air interfaces) and incubated in a saturated suspension of Streptococcus mutans (in BHI broth, 3% sucrose) under rotating conditions (50 rpm) at 37° C. for 3 days. Each day, bacteria were fed with 1 ml of a solution of 30% sucrose in PBS to enhance biofilm formation. After incubation, the teeth were washed with ultrapure H2O, air dried for 2 h and stained with Safranin (0.5% v/v) solution. The stained teeth were air dried and photographed (see above).
Of each tooth 4 representative pictures were taken. The pictures were analyzed with SigmaPlot Software, Version 11.0 using phase analysis: The color (phase) of the bacterial biofilm was defined and % area of the chosen color on each picture was calculated.
The difference between groups was compared using the unpaired t-test.

Structure (SMILES) | adhesion of bacteria compared to control tooth (pre-treatment 277 μg/ml) | % Area covered with bacteria (pre-treatment 277 μg/ml in PBS 1 h) | % Mean area covered (pre-treatment 277 μg/ml) | adhesion of bacteria to the tooth surface (pre-treatment 1106 μg/ml) | decrease of biofilm formation compared to control tooth (pre-treatment 1106 μg/ml) | % Mean area covered (pre-treatment 1106 μg/ml) | adhesion of bacteria compared to control tooth (pre-treatment 5000 μg/ml) | % Area covered with bacteria (pre-treatment 5000 μg/ml in PBS 1 h) | % Mean area covered (pre-treatment 5000 μg/ml) | adhesion of bacteria compared to control tooth (pre-treatment 20000 μg/ml) | % Area covered with bacteria (pre-treatment 20000 μg/ml in PBS 1 h) | % Mean area covered (pre-treatment 20000 μg/ml)
O=P(O)(OC[C@H](O)COP(=O)(O)OC[C@H](O)COP(=O)(O)OC[C@H](O)CO)OC[C@@H](O)COP(=O)(O)OC[C@@H](O)CO [PGP1] | significantly reduced | 1.93% and 0.19% and 0.08% and 0.40% | 0.65% | bacteria were still able to adhere to the tooth surface | still significant | 15.16% |  |  |  |  |  | 
O=P(O)(O)OC(CO)CO [glycerol phosphate, beta glycerol phosphate] |  |  |  |  |  |  | significantly reduced | 0.00% and 0.02% | 0.00% | significantly reduced | 0.00% | 0.00%
